According to patent publication US9957276B2, “CDK inhibitors” (G1 THERAPEUTICS, INC., priority 2010, dated 2018):

Each compound was assayed against CDK2/cyclinE (Homo sapiens (Human), UniProt P24941) (assay: CDK2/cyclinE kinase enzymatic assay (Caliper LabChip)). Details: Table 2, class symbols; read-out: CDK2/CycE IC50.
Type: biochemical
Procedure: (§1) Kinase enzymatic reactions were performed in 384-well microplates using a 12-channel Caliper LabChip instrument as a detection device. […] As substrate and product are separated, two peaks of fluorescence are observed. Change in the relative fluorescence intensity of the substrate and product peaks is the parameter measured, reflecting enzyme activity. In the presence of an inhibitor, the ratio between product and substrate is altered. The signal of the product decreases, while the signal of the substrate increases.
(§2) Potential inhibitor compounds (as HCl salts) were tested using 12-point dose response curves in […] at the Km for ATP. The IC50 of each compound was determined using GraphPad Prism.

Row | SMILES | IC50 [µM]
1 | CC(C)CC1CN(C)C(=O)c2cc3cnc(Nc4ccc(N5CCNCC5)cn4)nc3n21 (stereo not shown) [Compound 47] | > 100
2 | CC(C)C[C@H]1CN(C)C(=O)c2cc3cnc(Nc4ccc(N5CCNCC5)cn4)nc3n21 [Compound 15] | > 100
3 | CC(C)C1CNC(=O)c2cc3cnc(Nc4ccc(N5CCN(C(=O)OC(C)(C)C)CC5)cn4)nc3n21 (stereo not shown) [Compound 6] | > 100
4 | CC(C)C[C@H]1CN(C)C(=O)c2cc3cnc(Nc4ccc(N5CCN(C)CC5)cn4)nc3n21 [Compound 14] | > 100
5 | CCC(C)[C@H]1CN(C)C(=O)c2cc3cnc(Nc4ccc(N5CCN(C)CC5)cn4)nc3n21 (stereo partly shown) [Compound 18] | > 100
6 | CC(C)C1CNC(=O)c2cc3cnc(Nc4ccc(N5CCN(C)CC5)cn4)nc3n21 (stereo not shown) [Compound 7] | > 100
7 | O=C1N[C@H]2CCC[C@@H]2n2c1cc1cnc(Nc3ccc(N4CCNCC4)cn3)nc12 [Compound 49] | 1 to 100
8 | CC(C)[C@H]1CN(C)C(=O)c2cc3cnc(Nc4ccc(N5CCNCC5)cn4)nc3n21 [Compound 11] | > 100
9 | CN1CCN(c2ccc(Nc3ncc4cc5n(c4n3)[C@H]3CCC[C@@H]3NC5=O)nc2)CC1 [Compound 48] | > 100
10 | CN1CCn2c(cc3cnc(Nc4ccc(N5CCNCC5)cn4)nc32)C1=O [Compound 5] | > 100
11 | CCC(C)[C@H]1CN(C)C(=O)c2cc3cnc(Nc4ccc(N5CCNCC5)cn4)nc3n21 (stereo partly shown) [Compound 19] | > 100
12 | CN1CCN(c2ccc(Nc3ncc4cc5n(c4n3)CCNC5=O)nc2)CC1 [Compound 1] | > 100
13 | CN1CC2(CCCC2)n2c(cc3cnc(Nc4ccc(N5CCNCC5)cn4)nc32)C1=O [Compound 31] | > 100

The compounds below were run against CDK4/CyclinD (Homo sapiens (Human), UniProt P11802) (assay: CDK4/CyclinD kinase enzymatic assay (Caliper LabChip)). Details: compounds as HCl salts, 12-point dose response, at the Km for ATP, three hours.
Chain of CDK4/CyclinD (P11802 whole entry, species assumed): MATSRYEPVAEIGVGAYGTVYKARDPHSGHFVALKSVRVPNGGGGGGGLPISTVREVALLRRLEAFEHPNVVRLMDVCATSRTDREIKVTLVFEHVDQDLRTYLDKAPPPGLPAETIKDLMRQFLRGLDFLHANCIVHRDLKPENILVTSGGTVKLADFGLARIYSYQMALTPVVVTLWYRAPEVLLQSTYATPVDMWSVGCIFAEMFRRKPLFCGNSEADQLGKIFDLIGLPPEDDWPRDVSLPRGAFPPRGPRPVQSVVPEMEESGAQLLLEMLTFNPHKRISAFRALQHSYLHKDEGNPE
Chain of CDK4/CyclinD (P24385 whole entry partner, species assumed): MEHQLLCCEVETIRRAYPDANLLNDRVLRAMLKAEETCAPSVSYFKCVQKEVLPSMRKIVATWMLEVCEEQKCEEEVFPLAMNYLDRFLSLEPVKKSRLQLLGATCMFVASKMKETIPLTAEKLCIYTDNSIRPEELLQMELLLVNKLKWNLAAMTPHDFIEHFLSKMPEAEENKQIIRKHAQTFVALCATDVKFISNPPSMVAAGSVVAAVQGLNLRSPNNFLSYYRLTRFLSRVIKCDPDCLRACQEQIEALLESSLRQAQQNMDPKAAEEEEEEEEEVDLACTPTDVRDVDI
Type: biochemical
Procedure: as §1, §2

Row | SMILES | IC50 [µM]
14 | CN1CCN(c2ccc(Nc3ncc4cc5n(c4n3)CCNC5=O)nc2)CC1 [Compound 1] | 0.453

Same assay, conditions: from the IC50 values

Row | SMILES | selectivity for Cdk4/CycD1 over Cdk2/CycE [fold]
15 | O=C1NCCn2c1cc1cnc(Nc3ccc(N4CCNCC4)cn3)nc12 [Compound 3] | 100
16 | CN1CCN(c2ccc(Nc3ncc4cc5n(c4n3)CCNC5=O)nc2)CC1 [Compound 1] | 200
